Reference: PMC10044725, “Antioxidant, Anti-Inflammatory and Anti-Diabetic Activities of Tectona grandis Methanolic Extracts, Fractions, and Isolated Compounds” (Antioxidants, 2023)
Marks after values point to notes of the source that are not given here.

Experiments:
α-glucosidase = assay: α-Glucosidase inhibition assay (pNPG); type: biochemical; settings: for Inhibitory Rate (%): at a concentration of 50 µM; for IC50: compounds
Protocol: The inhibitory effect on α-glucosidase was measured according to the previous report method with slight modifications. The 20 mM sample dissolved in DMSO was diluted to 50 μM in PBS, 10 μL sample was mixed with 50 μL of 0.1 μ/mL α-glucosidase solution in 0.1 M phosphate buffer (pH 6.5) in a 96-well microplate and 10 μL PBS was used as a blank control. The mixture was incubated at 37 °C for 10 min before adding 40 µL of 5 mM 4-nitrophenyl-α-D-glucopyranoside to each well. After 30 min of incubation at 37 °C, the reaction was terminated by adding 50 μL of 0.1 M Na2CO3 to this mixture. The released 4-nitrophenol absorbance measurements were carried out using a microplate reader (SpectraMax190, USA) at 405 nm.

BSA = assay: Prevention of AAPH-induced protein oxidative damage; set-up: species or system Bovine; settings: AAPH 160 mM; residual BSA
Protocol: The protective activities of T. grandis methanolic extract, different fractions and its compounds 15 and 23 on protein oxidative damage were carried out using the method of Yang et al.. Initially, 20 μL BSA solutions (1 mg/mL) in PBS (0.1 M, pH 6.8) were mixed with different concentrations of fractions (40 μL) and compounds (40 μL) and incubated in water at 37 °C for 30 min. Then, 40 μL AAPH (160 mM) was added to the mixture and the reaction continued for 4 h. The control group used the same volume of PBS (0.1 M, pH 6.8) to replace AAPH. The pre-treated samples were added to 5 × SDS loading buffer and treated in water at 95 °C for 15 min. […] After electrophoresis, the gels were stained with Coomassie brilliant blue R-250 dye (0.25%, w/v), and then the gels were decolorized with the decolorizing solution. Finally, images were taken using the SDS-PAGE gel imaging system (ChampChemi 610, China) and the grayscale of Western blot was analyzed using Image J software.

pBR322 DNA = assay: Prevention of AAPH-induced DNA oxidative damage; settings: AAPH 20 mM; p < 0.0001 vs model
Protocol: The effects of T. grandis methanolic extract, different fractions and its compounds 15, 19 and 23 on the prevention of DNA oxidative damage were carried out using the method of Han et al.. Initially, 8 μL pBR322 DNA (50 μg/mL) in PBS (0.1 M, pH 6.8) was mixed with different concentrations of T. grandis fractions and its compounds (12 μL) and incubated in water at 37 °C for 30 min. Then, 5 μL AAPH (20 mM) was added to the mixture and the reaction continued for 60 min. The control group used the same volume of PBS (0.1 M, pH 6.8) to replace AAPH. The pre-treated samples were mixed with 5 × DNA loading buffer, and the mixture (8 μL) was taken for 1.0% agarose gel electrophoresis for 25 min. After electrophoresis, the gels were stained with ethidium bromide for 20 min. Finally, images were taken using a DNA gel imaging system (ChampChemi 610, Beijing sage creation Co., Ltd. Beijing, China).

[1] = ABTS radical cation scavenging assay (Trolox equivalent); settings: compounds at 50 μM
Protocol: The ABTS radical cation (ABTS•+) scavenging activities were conducted in accordance with the instructions for the ABTS kit. The total antioxidant activity values were estimated using the Trolox equivalent antioxidant capacity test. The detection concentration of methanolic extract and different fractions was 80 μg/mL, and the detection concentration of compounds (1–23) was 50 μM. […] Then, 190 μL of ABTS working reagent was mixed with 10 μL sample and incubated at room temperature for 5 min. The absorbance was then measured using a microplate reader at 734 nm, and the scavenging activity was calculated according to Equation (2). The blank control group used DMSO to replace the sample. […] The analysis was performed in triplicates, 1.424, 0.0012 was a constant.

[2] = DPPH free radical scavenging assay; settings: isolated compounds; half scavenging concentration; read-out: DPPH Assay SC50
Protocol: The DPPH free radical scavenging activities of T. grandis methanolic extract, different fractions and its compounds were conducted according to Dr. Yang et al.. […] The absorbance was measured using a microplate reader at 517 nm, and ascorbic acid was used as a positive control. The DPPH scavenging activity was calculated according to the following formula: Scavenging activity (%) = [1 − (A1 − A2)/(A3 − A4)] × 100% (1) where A1 is the OD value of the tested samples, A2 is the OD value of the sample control, A3 is the OD value of the negative control and A4 is the OD value of the blank control. The analysis was performed in triplicates and the results were described as SC50 values.

[3] = Ferric reducing antioxidant power (FRAP) assay; settings: compounds at 50 μM; Trolox equivalent
Protocol: The FRAP assay was determined in accordance with the instructions for the FRAP kit. The total antioxidant activity values were estimated using the Trolox equivalent antioxidant capacity test. Initially, the detection concentration of methanolic extract and different fractions was 80 μg/mL, and the detection concentration of compounds (1–23) was 50 μM. Then, 190 μL of FRAP working reagent was mixed with 10 μL sample and incubated at room temperature for 20 min. The absorbance was then measured using a microplate reader at 593 nm, and the scavenging activity was calculated according to Equation (3). The blank control group used DMSO to replace the sample. […] The analysis was performed in triplicates, 0.8054, 0.0134 was a constant.

TNF-α = TNF-α secretion in LPS-stimulated RAW 264.7 macrophages (ELISA); type: cell-based, mouse; settings: 40 µM, LPS 1 µg/mL, 48 h, vs model control (p < 0.01)
Protocol: (§1) In order to increase cytokine production, macrophages were treated with LPS at a final concentration of 1 µg/mL, and then with T. grandis compounds at 40 µM. The compounds were solubilized in DMEM medium containing 0.1% DMSO. Dexamethasone was employed as a positive control (5 µg/mL). A centrifuge was used to separate the supernatant from the cells after 48 h of incubation, with three replicates per group. Quantification of TNF-α, IL-1β and IL-6 secretion was achieved by following the ELISA manufacturer's instructions. Then, absorbance was measured at 450 nm. Relative TNF-α, IL-1β and IL-6 expression was calculated according to Equation (4). Following the inflammatory factor test, cell viability was detected by CellTiter96® Aqueous One Solution Cell Proliferation Assay. Then, 20 μL/well CellTiter96® Aqueous One Solution Cell Growth Assay reagent was added to the plate and incubated at 37 °C for 8 h, absorbance was measured at […] and relative cell viability was calculated according to Equation (5). Relative content of inflammatory cytokines (%) = (A1/A2)/A3 × 100%(4) where A1 is the concentrations value of inflammatory cytokines of each group, A2 is the relative cell viability of each group (model group is 100) and A3 is the concentration of inflammatory cytokines of model group. Cell viability rate (%) = B1/B2 × 100%(5) where B1 is the OD value of each fraction group or positive control group and B2 is the OD value of the model control.

IL-6 = IL-6 secretion in LPS-stimulated RAW 264.7 macrophages (ELISA); type: cell-based, mouse; settings: 40 µM, LPS 1 µg/mL, 48 h, vs model control (p < 0.05)
Protocol: as §1

IL-1β = IL-1β secretion in LPS-stimulated RAW 264.7 macrophages (ELISA); type: cell-based, mouse; settings: 40 µM, LPS 1 µg/mL, 48 h, vs model control (p < 0.0001)
Protocol: as §1

| SMILES | Inhibitory Rate (%) (α-glucosidase) | IC50 (α-glucosidase) [µM] | concentration at which a protective effect against protein oxidative damage begins (BSA) [µM] | concentration at which a protective effect against DNA oxidative damage begins (pBR322 DNA) [mM] | ABTS Assay [1] | EC50 [2] [µM] | FRAP Assay [3] | effect on TNF-α inflammatory factor level (TNF-α) | effect on IL-6 inflammatory factor expression (IL-6) | effect on IL-1β inflammatory factor level (IL-1β) |
| --- | --- | --- | --- | --- | --- | --- | --- | --- | --- | --- |
| C[C@@H]1O[C@@H](O[C@@H]2[C@@H](O)[C@H](OCCc3ccc(O)c(O)c3)O[C@H](CO)[C@H]2OC(=O)/C=C/c2ccc(O)c(O)c2)[C@H](O)[C@H](O)[C@H]1O [Compound 15, verbascoside] | 18.30 ± 2.22 ^cd % | > 50 | 40 | 0.6 | 1.10 ± 0.77 ^a mmol Trolox/L | 1.99 ± 0.34 | 1.22 ± 0.11 ^a mmol Trolox/L |  |  |  |
| CC1CCC2(C(=O)OC3OC(CO)C(O)C(O)C3OC3OC(CO)C(O)C(O)C3O)CCC3(C)C(=CCC4C5(C)CC(O)C(O)C(C)(CO)C5CCC43C)C2C1(C)O [Compound 18, 2β,3β,19α,23-tetrahydroxy-urs-12-en-28-O-[β-D-glucopyranosyl (1-2)-β-D-glucopyranosyl] ester] | 22.91 ± 1.10 ^c % | > 50 |  |  |  | 8.45 ± 0.57 | 0.39 ± 0.00 ^b mmol Trolox/L | could decrease | significant activities in reducing the expression | significant decrease |
| COC(=O)c1cc(O)c2c(c1)C(=O)c1ccccc1C2=O [Compound 13, 3-carbomethoxy-1-hydroxy-9,10-anthraquinone] | 13.84 ± 0.93 ^d % | > 50 |  |  | 0.04 ± 0.00 ^d mmol Trolox/L | 3.56 ± 0.53 | 0.01± 0.01 ^c mmol Trolox/L |  | significant activities in reducing the expression | significant decrease |
| O=c1cc(-c2ccc(O)c(O)c2)oc2cc(O[C@@H]3O[C@H](CO)[C@@H](O)[C@H](O)[C@H]3O)cc(O)c12 [Compound 1, luteolin-7-O-β-D-glucoside] | 10.62 ± 1.39 ^d % | > 50 |  |  | 0.08 ± 0.01 ^d mmol Trolox/L | 8.09 ± 1.05 |  | could decrease | significant activities in reducing the expression | significant decrease |
